Values of other authors in patent US7670624B2, “Gastrointestinal-specific multiple drug release system” (Astella Pharma Inc., priority 2004, dated 2010).
Where a name gives a salt, the structure may show the parent alone.

Settings: in vivo

t1/2 [h] | SMILES
3 | NC(N)=Nc1nc(CSCCC(N)=NS(N)(=O)=O)cs1 [Famotidine]
9.5 | CN(C)c1ccc(O)c2c1C[C@H]1C[C@H]3[C@H](N(C)C)C(O)=C(C(N)=O)C(=O)[C@@]3(O)C(O)=C1C2=O [Minocycline hydrochloride]
